According to ChEMBL document CHEMBL4414672, “Synthesis of certain benzothieno[3,2-d]pyrimidine derivatives as a selective SIRT2 inhibitors” (Eur J Med Chem, 2020):

Legend:
Type in all cases: functional
[1] = test system: CCRF-CEM; experiment: Growth inhibition of human CCRF-CEM cells at 10^-5 M incubated for 48 hrs by sulforhodamine B assay; details: read-out: GI
[2] = test system: HL-60(TB); experiment: Growth inhibition of human HL-60(TB) cells at 10^-5 M incubated for 48 hrs by sulforhodamine B assay; details: HL-60, 48 h, read-out: GI
[3] = test system: MOLT-4; experiment: Growth inhibition of human MOLT4 cells at 10^-5 M incubated for 48 hrs by sulforhodamine B assay; details: MOLT-4, 48 h, read-out: GI
[4] = test system: SR; experiment: Growth inhibition of human SR cells at 10^-5 M incubated for 48 hrs by sulforhodamine B assay; details: read-out: GI
[5] = test system: A549; experiment: Growth inhibition of human A549/ATCC cells at 10^-5 M incubated for 48 hrs by sulforhodamine B assay; details: A549, 48 h, read-out: GI
[6] = test system: NCI-H23; experiment: Growth inhibition of human NCI-H23 cells at 10^-5 M incubated for 48 hrs by sulforhodamine B assay; details: NCI-H23, 48 h, read-out: GI
[7] = test system: NCI-H322M; experiment: Growth inhibition of human NCI-H322M cells at 10^-5 M incubated for 48 hrs by sulforhodamine B assay; details: read-out: GI
[8] = test system: NCI-H460; experiment: Growth inhibition of human NCI-H460 cells at 10^-5 M incubated for 48 hrs by sulforhodamine B assay; details: NCI-H460, 48 h, read-out: GI
[9] = test system: NCI-H522; experiment: Growth inhibition of human NCI-H522 cells at 10^-5 M incubated for 48 hrs by sulforhodamine B assay; details: NCI-H522, 48 h, read-out: GI
[10] = test system: HCT-116; experiment: Growth inhibition of human HCT116 cells at 10^-5 M incubated for 48 hrs by sulforhodamine B assay; details: HCT-116, 48 h, read-out: GI
[11] = test system: HCT-15; experiment: Growth inhibition of human HCT15 cells at 10^-5 M incubated for 48 hrs by sulforhodamine B assay; details: HCT-15, 48 h, read-out: GI
[12] = test system: SW-620; experiment: Growth inhibition of human SW620 cells at 10^-5 M incubated for 48 hrs by sulforhodamine B assay; details: SW-620, 48 h, read-out: GI
[13] = test system: SF-268; experiment: Growth inhibition of human SF268 cells at 10^-5 M incubated for 48 hrs by sulforhodamine B assay; details: SF-268, 48 h, read-out: GI
[14] = test system: SF-295; experiment: Growth inhibition of human SF295 cells at 10^-5 M incubated for 48 hrs by sulforhodamine B assay; details: SF-295, 48 h, read-out: GI
[15] = test system: SNB-19; experiment: Growth inhibition of human SNB19 cells at 10^-5 M incubated for 48 hrs by sulforhodamine B assay; details: SNB-19, 48 h, read-out: GI
[16] = test system: SNB-75; experiment: Growth inhibition of human SNB75 cells at 10^-5 M incubated for 48 hrs by sulforhodamine B assay; details: SNB-75, 48 h, read-out: GI
[17] = test system: LOX IMVI; experiment: Growth inhibition of human LOXIMVI cells at 10^-5 M incubated for 48 hrs by sulforhodamine B assay; details: read-out: GI
[18] = test system: Malme-3M; experiment: Growth inhibition of human MALME-3M cells at 10^-5 M incubated for 48 hrs by sulforhodamine B assay; details: read-out: GI
[19] = test system: M14; experiment: Growth inhibition of human M14 cells at 10^-5 M incubated for 48 hrs by sulforhodamine B assay; details: M14, 48 h, read-out: GI
[20] = test system: SK-MEL-28; experiment: Growth inhibition of human SK-MEL-28 cells at 10^-5 M incubated for 48 hrs by sulforhodamine B assay; details: SK-MEL-28, 48 h, read-out: GI
[21] = test system: SK-MEL-5; experiment: Growth inhibition of human SK-MEL-5 cells at 10^-5 M incubated for 48 hrs by sulforhodamine B assay; details: SK-MEL-5, 48 h, read-out: GI
[22] = test system: UACC-62; experiment: Growth inhibition of human UACC62 cells at 10^-5 M incubated for 48 hrs by sulforhodamine B assay; details: UACC-62, 48 h, read-out: GI
[23] = test system: IGROV-1; experiment: Growth inhibition of human IGROV1 cells at 10^-5 M incubated for 48 hrs by sulforhodamine B assay; details: IGROV-1, 48 h, read-out: GI
[24] = test system: OVCAR-3; experiment: Growth inhibition of human OVCAR3 cells at 10^-5 M incubated for 48 hrs by sulforhodamine B assay; details: OVCAR-3, 48 h, read-out: GI
[25] = test system: OVCAR-5; experiment: Growth inhibition of human OVCAR5 cells at 10^-5 M incubated for 48 hrs by sulforhodamine B assay; details: OVCAR-5, 48 h, read-out: GI
[26] = test system: OVCAR-8; experiment: Growth inhibition of human OVCAR8 cells at 10^-5 M incubated for 48 hrs by sulforhodamine B assay; details: OVCAR-8, 48 h, read-out: GI
[27] = test system: NCI/ADR-RES; experiment: Growth inhibition of human NCI/ADR-RES cells at 10^-5 M incubated for 48 hrs by sulforhodamine B assay; details: read-out: GI
[28] = test system: SK-OV-3; experiment: Growth inhibition of human SKOV3 cells at 10^-5 M incubated for 48 hrs by sulforhodamine B assay; details: SK-OV-3, 48 h, read-out: GI
[29] = test system: 786-0; experiment: Growth inhibition of human 786-0 cells at 10^-5 M incubated for 48 hrs by sulforhodamine B assay; details: 786-0, 48 h, read-out: GI
[30] = test system: A498; experiment: Growth inhibition of human A498 cells at 10^-5 M incubated for 48 hrs by sulforhodamine B assay; details: A498, 48 h, read-out: GI
[31] = test system: ACHN; experiment: Growth inhibition of human ACHN cells at 10^-5 M incubated for 48 hrs by sulforhodamine B assay; details: read-out: GI
[32] = test system: RXF 393; experiment: Growth inhibition of human RXF393 cells at 10^-5 M incubated for 48 hrs by sulforhodamine B assay; details: RXF 393, 48 h, read-out: GI
[33] = test system: SN12C; experiment: Growth inhibition of human SN12C cells at 10^-5 M incubated for 48 hrs by sulforhodamine B assay; details: read-out: GI
[34] = test system: TK-10; experiment: Growth inhibition of human TK10 cells at 10^-5 M incubated for 48 hrs by sulforhodamine B assay; details: TK-10, 48 h, read-out: GI
[35] = test system: DU-145; experiment: Growth inhibition of human DU145 cells at 10^-5 M incubated for 48 hrs by sulforhodamine B assay; details: DU-145, 48 h, read-out: GI
[36] = test system: MCF7; experiment: Growth inhibition of human MCF7 cells at 10^-5 M incubated for 48 hrs by sulforhodamine B assay; details: MCF7, 48 h, read-out: GI
[37] = test system: MDA-MB-231; experiment: Growth inhibition of human MDA-MB-231 cells at 10^-5 M incubated for 48 hrs by sulforhodamine B assay; details: MDA-MB-231, 48 h, read-out: GI
[38] = test system: Hs-578T; experiment: Growth inhibition of human Hs 578T cells at 10^-5 M incubated for 48 hrs by sulforhodamine B assay; details: read-out: GI
[39] = test system: T47D; experiment: Growth inhibition of human T47D cells at 10^-5 M incubated for 48 hrs by sulforhodamine B assay; details: read-out: GI

SMILES | inhibition of growth at 10 µM [1] | inhibition of growth at 10 µM [2] | inhibition of growth at 10 µM [3] | inhibition of growth at 10 µM [4] | inhibition of growth at 10 µM [5] | inhibition of growth at 10 µM [6] | inhibition of growth at 10 µM [7] | inhibition of growth at 10 µM [8] | inhibition of growth at 10 µM [9] | inhibition of growth at 10 µM [10] | inhibition of growth at 10 µM [11] | inhibition of growth at 10 µM [12] | inhibition of growth at 10 µM [13] | inhibition of growth at 10 µM [14] | inhibition of growth at 10 µM [15] | inhibition of growth at 10 µM [16] | inhibition of growth at 10 µM [17] | inhibition of growth at 10 µM [18] | inhibition of growth at 10 µM [19] | inhibition of growth at 10 µM [20] | also measured
O=[N+]([O-])c1cccc(C2c3sc4ccc(Cl)cc4c3N=C3NN=NN32)c1 (stereo not drawn) | -11.4% | -9.93% | -1.88% | -7.25% | 9.64% | 1.39% | -3.77% | 6.19% | -7.9% | -7.64% | -16% | -1.74% | -8.1% | 3.68% | 7.13% | -9.67% | -0.19% | -4.76% | -10.9% | 3.38% | inhibition of growth at 10 µM [21]: -10.9%; inhibition of growth at 10 µM [22]: 21.3%; inhibition of growth at 10 µM [23]: -11.1%; inhibition of growth at 10 µM [24]: -0.5%; inhibition of growth at 10 µM [25]: -6.97%; inhibition of growth at 10 µM [26]: -4.72%; inhibition of growth at 10 µM [27]: 3.11%; inhibition of growth at 10 µM [28]: 6.39%; inhibition of growth at 10 µM [29]: 9.33%; inhibition of growth at 10 µM [30]: 18.1%; inhibition of growth at 10 µM [31]: -27.8%; inhibition of growth at 10 µM [32]: 0%; inhibition of growth at 10 µM [33]: 9.98%; inhibition of growth at 10 µM [34]: 35.8%; inhibition of growth at 10 µM [35]: 22%; inhibition of growth at 10 µM [36]: 15.4%; inhibition of growth at 10 µM [37]: -4.1%; inhibition of growth at 10 µM [38]: -11.2%; inhibition of growth at 10 µM [39]: -8.85%
O=C1/C(=C\c2ccc3ccccc3c2)Sc2ccc(Cl)cc21 | -2.13% | -7.44% | 1.25% | 18.6% | -7.74% | 10.4% | 10.3% | 0.3% | 11.7% | 6.88% | -4.32% | 3.24% | 3.36% | -8.09% | -8.84% | -0.33% | 1.77% | 8.78% | 3.18% | -17.4% | inhibition of growth at 10 µM [21]: 5.71%; inhibition of growth at 10 µM [22]: 21.7%; inhibition of growth at 10 µM [23]: 15.7%; inhibition of growth at 10 µM [24]: -1.8%; inhibition of growth at 10 µM [25]: -2.92%; inhibition of growth at 10 µM [26]: -4.13%; inhibition of growth at 10 µM [27]: 2.51%; inhibition of growth at 10 µM [28]: -3.03%; inhibition of growth at 10 µM [29]: 0.49%; inhibition of growth at 10 µM [30]: 0.99%; inhibition of growth at 10 µM [31]: 8.79%; inhibition of growth at 10 µM [32]: -2.24%; inhibition of growth at 10 µM [33]: 6.38%; inhibition of growth at 10 µM [34]: -5.61%; inhibition of growth at 10 µM [35]: -10.2%; inhibition of growth at 10 µM [36]: -10.2%; inhibition of growth at 10 µM [37]: 12.4%; inhibition of growth at 10 µM [38]: -2.83%; inhibition of growth at 10 µM [39]: 29.5%
